Data taken from patent publication US20250120975A1, “INTEGRIN INHIBITORS FOR TREATMENT OF PRIMARY SCLEROSING CHOLANGITIS” (Pliant Therapeutics, Inc., priority 2023, published 2025).
“Also recorded” adds a separate entry of the source.

Columns and labels:
[1] = system: BALB/c.Mdr2−/− mouse model of biliary fibrosis; experiment: Connective tissue (picrosirius red) histology; format: in vivo; conditions: 300 and 1000 mg/kg, 6 weeks
Source text: The tissue source is BALBc.Mdr2-/−male mice that were 6 weeks old. The Mdr2(abcb4)−/− mouse model of sclerosing cholangitis has been previously described and is a model of spontaneously progressive hepatic fibrosis in mice with deletion of the biliary phospholipid flippase on fibrosis-susceptible background (Mdr2(abcb4)^−/−. BALB/c mouse). See N. Ikenaga, et al. (2015) Am J Pathol. 185 (2): 325-334, the entire contents of which are hereby incorporated by reference in their entirety.
(S)-4-((2-methoxyethyl)(4-(5,6,7,8-tetrahydro-1,8-naphthyridin-2-yl)butyl)amino)-2-(quinazolin-4-ylamino)butanoic acid (or PBS) was dosed once daily orally at 100 mg/kg, 300 mg/kg or 1000 mg/kg (see Table B-2) starting at 6 weeks after birth of the subject and continuing for 6 weeks. All animals were euthanized and necropsied at the end of week 12.
Connective tissue stains were carried out to morphometrically assess fibrosis, through analysis of 10 high power fields per animal.

[2] = system: subjects with PSC and suspected liver fibrosis; experiment: Phase 2a INTEGRIS-PSC: Itch Numerical Rating Scale (NRS); format: in vivo, human
Description: In one embodiment is provided a method of reducing itch or pruritus (chronic itching). Itch can be quantified on a 0-10 scale using the Peak Pruritus Numerical Rating Scale (NRS), where 0 is “no itch” and 10 is “worst imaginable itch” over the past 24 hours (Yosipovitch et al., British Journal of Dermatology (2019) 181:761-769, incorporated by reference herein in its entirety). In embodiments, a method of reducing pruritus in a human who has fibrotic liver disease is provided, comprising administering to the human(S)-4-((2-methoxyethyl)(4-(5,6,7,8-tetrahydro-1,8-naphthyridin-2-yl)butyl)amino)-2-(quinazolin-4-ylamino)butanoic acid, or a pharmaceutically acceptable salt thereof. In embodiments, a method of reducing (e.g., ameliorating) pruritus in a human who has fibrotic liver disease (e.g., primary sclerosing cholangitis) is provided, comprising administering to the human(S)-4-((2-methoxyethyl)(4-(5,6,7,8-tetrahydro-1,8-naphthyridin-2-yl)butyl)amino)-2-(quinazolin-4-ylamino)butanoic acid, or a pharmaceutically acceptable salt thereof, as compared to a human who has not been administered(S)-4-((2-methoxyethyl)(4-(5,6,7,8-tetrahydro-1,8-naphthyridin-2-yl)butyl)amino)-2-(quinazolin-4-ylamino)butanoic acid, or a pharmaceutically acceptable salt thereof. […] In further embodiments, pruritus is reduced as measured by a change in itch numerical rating scale from between about 0.8 and about-0.2 at about 12 weeks following a first administration of (S)-4-((2-methoxyethyl)(4-(5,6,7,8-tetrahydro-1,8-naphthyridin-2-yl)butyl)amino)-2-(quinazolin-4-ylamino)butanoic acid, or a pharmaceutically acceptable salt thereof to the human. […]

[3] = Phase 2a INTEGRIS-PSC: plasma concentrations (total and unbound); format: in vivo, human; conditions: 40, 80, 160 mg once daily, 12 weeks
Source text: The pharmacokinetic, pharmacodynamic, and pharmacogenomic assessments included the following: • a) PK: plasma samples for PK analysis (total and unbound(S)-4-((2-methoxyethyl)(4-(5,6,7,8-tetrahydro-1,8-naphthyridin-2-yl)butyl)amino)-2-(quinazolin-4-ylamino)butanoic acid concentrations) were obtained. • b) Biomarkers: plasma, serum (Parts 1, 2, and 3), and urine (Parts 1 and 2) samples were obtained. • c) Pharmacogenomics: a whole blood sample for deoxyribonucleic acid (DNA) isolation was collected before dosing on Day 1 from each subject in the study.
Blood samples for determination of plasma concentrations of (S)-4-((2-methoxyethyl)(4-(5,6,7,8-tetrahydro-1,8-naphthyridin-2-yl)butyl)amino)-2-(quinazolin-4-ylamino)butanoic acid are obtained before and at least 2 hours after administration of (S)-4-((2-methoxyethyl)(4-(5,6,7,8-tetrahydro-1,8-naphthyridin-2-yl)butyl)amino)-2-(quinazolin-4-ylamino)butanoic acid on Day 1, at Weeks 4 and 12(Parts 1, 2, and 3), Week 24 (Part 3 only), and at early termination (if possible, for any subject who prematurely discontinues from the study). The actual time dosing and the actual time of blood collection is recorded. […]

In the case of COCCN(CCCCc1ccc2c(n1)NCCC2)CC[C@H](Nc1ncnc2ccccc12)C(=O)O [Bexotegrast, (S)-4-((2-methoxyethyl)(4-(5,6,7,8-tetrahydro-1,8-naphthyridin-2-yl)butyl)amino)-2-(quinazolin-4-ylamino)butanoic acid], the “fibrosis by picrosirius red histological staining” value [1] is reported as “significant reductions”, the “Itch Numerical Rating Scale (NRS) score” value ([2]; 320 mg, over 24 weeks, relative to an increase on placebo, Example B-5) is reported as “did not increase; also recorded: stable score” and the “itch (NRS) relative to placebo” value ([2]; 40, 80, 160 mg, Week 12, statistical significance for the 160 mg dose, Example B-3) is reported as “dose dependent reductions”. The “itch (NRS) relative to the placebo” value ([2]; 40-320 mg, Week 12, statistical significance for the 160 mg, 320 mg groups, Example B-4) was “dose-dependent reductions” and the “total and unbound plasma concentrations vs dose” value [3] was “increased with dose”.
